Test results: the NIST ThermoML archive (doi:10.1016/j.fluid.2017.03.011)

How the values were obtained:
[1] = refractive index (Na D-line) (dimensionless); an = ratio of the nth substance listed; settings: 101 kPa, Liquid, Standard Abbe refractometry, a2 = 3
[2] = an = ratio of the nth substance listed; settings: 101 kPa, Liquid, a2 = 3; for electrical conductivity: Alternating current cell with electrodes; for viscosity: Falling or rolling sphere viscometry; for speed of sound: Sing-around technique in a fixed-path interferometer; for mass density: Vibrating tube method

CCC[N+](CCC)(CCC)Cc1ccccc1.[Cl-] [benzyltripropylammonium chloride] + OCCO
Settings | electrical conductivity, [2] [S/m] | mass density, [2] [kg/m3] | refractive index, [1] | speed of sound, [2] [m/s] | viscosity, [2] [mPa·s]
293.15 K | 0.0734 | 1063.63 | 1.4981 | 1762.4 | 327.9
298.15 K | 0.0883 | 1060.58 | 1.4965 | 1746.5 | 229.2
303.15 K | 0.105 | 1057.52 | 1.4952 | 1731 | 164.6
308.15 K | 0.125 | 1054.44 | 1.4939 | 1715.9 | 121
313.15 K | 0.146 | 1051.35 | 1.4924 | 1701.1 | 90.8
318.15 K | 0.17 | 1048.27 | 1.4911 | 1686.4 | 70.6
323.15 K | 0.2 | 1045.19 | 1.4895 | 1671.9 | 54.4
328.15 K | 0.228 | 1042.11 | 1.4879 | 1657.5 | 42.1
333.15 K | 0.26 | 1039.03 | 1.4864 | 1643.3 | 33.5
338.15 K | 0.292 | 1035.95 | 1.4849 | 1629.2 | 27
343.15 K | 0.328 | 1032.88 | 1.4831 | 1615.7 | 22.2

CCC[N+](CCC)(CCC)Cc1ccccc1.[Cl-] [benzyltripropylammonium chloride] + CC(O)C(=O)O
Settings | electrical conductivity, [2] [S/m] | mass density, [2] [kg/m3] | refractive index, [1] | speed of sound, [2] [m/s] | viscosity, [2] [mPa·s]
293.15 K | 0.0011 | 1120.61 | 1.4944 | 1658.2 | –
298.15 K | 0.0018 | 1117.05 | 1.4926 | 1640.8 | –
303.15 K | 0.003 | 1113.49 | 1.4908 | 1624.7 | 2276.7
308.15 K | 0.0047 | 1109.92 | 1.4892 | 1607.9 | 1288.3
313.15 K | 0.0071 | 1106.36 | 1.4876 | 1592.5 | 780.5
318.15 K | 0.0103 | 1102.71 | 1.4858 | 1577.6 | 489.2
323.15 K | 0.0146 | 1099.19 | 1.4844 | 1563.7 | 319
328.15 K | 0.0201 | 1095.66 | 1.4824 | 1550.1 | 215.6
333.15 K | 0.0267 | 1092.1 | 1.4811 | 1537.3 | 150.6
338.15 K | 0.035 | 1088.54 | 1.4791 | 1525.1 | 108.5
343.15 K | 0.0443 | 1084.99 | 1.4778 | 1513.6 | 81.3

CCC[N+](CCC)(CCC)Cc1ccccc1.[Cl-] [benzyltripropylammonium chloride] + OCC(O)CO
Settings | electrical conductivity, [2] [S/m] | mass density, [2] [kg/m3] | refractive index, [1] | speed of sound, [2] [m/s] | viscosity, [2] [mPa·s]
293.15 K | 0.0058 | 1133.02 | 1.5051 | 1898.3 | –
298.15 K | 0.0085 | 1129.97 | 1.5036 | 1868.9 | –
303.15 K | 0.0117 | 1126.92 | 1.5026 | 1844.9 | 1890.5
308.15 K | 0.016 | 1123.81 | 1.5011 | 1824.4 | 1179.6
313.15 K | 0.022 | 1120.62 | 1.4999 | 1806.5 | 779.8
318.15 K | 0.0289 | 1117.51 | 1.4982 | 1790.1 | 519.3
323.15 K | 0.0374 | 1114.45 | 1.4966 | 1774.7 | 359.2
328.15 K | 0.048 | 1111.39 | 1.4953 | 1760.1 | 251.6
333.15 K | 0.0596 | 1108.32 | 1.4936 | 1745.9 | 180.1
338.15 K | 0.0741 | 1105.24 | 1.4922 | 1732.2 | 131.4
343.15 K | 0.0894 | 1102.17 | 1.4908 | 1719.2 | 97

CCC[N+](CCC)(CCC)Cc1ccccc1.[Cl-] [benzyltripropylammonium chloride] + Oc1ccccc1
Settings | electrical conductivity, [2] [S/m] | mass density, [2] [kg/m3] | refractive index, [1] | speed of sound, [2] [m/s] | viscosity, [2] [mPa·s]
293.15 K | 0.0213 | 1060.26 | 1.5486 | 1699.7 | 638.4
298.15 K | 0.0295 | 1056.98 | 1.5471 | 1679.8 | 381.5
303.15 K | 0.0397 | 1053.73 | 1.5452 | 1661.7 | 237.1
308.15 K | 0.0523 | 1050.47 | 1.5436 | 1644.5 | 156.7
313.15 K | 0.0669 | 1047.19 | 1.542 | 1628 | 107
318.15 K | 0.0838 | 1043.91 | 1.5403 | 1611.9 | 76.8
323.15 K | 0.0999 | 1040.64 | 1.5386 | 1596.2 | 57.6
328.15 K | 0.118 | 1037.37 | 1.5369 | 1580.7 | 43.1
333.15 K | 0.138 | 1034.12 | 1.5352 | 1565.5 | 32.6
338.15 K | 0.162 | 1030.87 | 1.5334 | 1550.5 | 25.8
343.15 K | 0.183 | 1027.64 | 1.5317 | 1536.1 | 20.4
